Test [1] concerns the target T1, horse serum butyrylcholinesterase (Equus caballus, UniProt P81908).
T1 construct: horse-serum BChE (EC 3.1.1.8); purchased Sigma Co. (St. Louis, MO, USA); host or cells: horse serum
Description: In vitro BChE inhibition assay (Ellman spectrophotometric method). Format: biochemical. As to the method:
(§1) The inhibitory activities of isolated compounds against ChEs were measured using the spectrophotometric method, as described previously. Briefly, AChI and BCh were used as the substrates to assay the inhibition of AChE and BChE, respectively. Each reaction mixture contained 140 µL of sodium phosphate buffer (pH 8.0); 20 µL of compounds (final conc., 100 µM); and, 20 µL of either AChE or BChE solution, which was mixed and incubated for 15 min at room temperature. […] Reactions were initiated by the addition of 10 µL of DTNB and 10 µL of either AChI or BCh. […] All of the reactions were performed in triplicate and recorded in 96-well microplate format using a microplate spectrophotometer (Molecular Devices, Sunnyvale, CA, USA). Percent inhibition was calculated as (1-S/E) × 100, where E and S were the respective enzyme activities without and with the tested sample, respectively.

Test [2] concerns the target T2, Electric eel acetylcholinesterase (Electrophorus electricus, UniProt O42275).
T2 construct: purchased Sigma Co. (St. Louis, MO, USA)
Kind of test: In vitro AChE inhibition assay (Ellman spectrophotometric method). Format: biochemical. As to the method:
as §1

For test [3], the target named is T3, human recombinant BACE1 (Homo sapiens, UniProt P56817).
T3 construct: purchased Pan Vera Co. (Madison, WI, USA)
T3 sequence (P56817 46-501): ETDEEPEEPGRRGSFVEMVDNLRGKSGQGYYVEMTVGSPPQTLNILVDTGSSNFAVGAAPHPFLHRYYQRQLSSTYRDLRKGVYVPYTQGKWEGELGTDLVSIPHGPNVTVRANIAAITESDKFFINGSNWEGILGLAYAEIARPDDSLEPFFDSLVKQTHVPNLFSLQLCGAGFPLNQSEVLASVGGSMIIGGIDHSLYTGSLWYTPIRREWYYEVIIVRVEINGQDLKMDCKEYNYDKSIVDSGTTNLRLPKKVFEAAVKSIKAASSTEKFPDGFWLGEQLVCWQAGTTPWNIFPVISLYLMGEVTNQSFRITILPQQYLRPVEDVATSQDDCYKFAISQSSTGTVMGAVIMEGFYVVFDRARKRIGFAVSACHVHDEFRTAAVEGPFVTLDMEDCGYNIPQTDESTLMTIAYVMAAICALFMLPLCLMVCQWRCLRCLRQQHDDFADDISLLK
Kind of test: In vitro BACE1 FRET enzyme assay. Format: biochemical. The conditions noted are these: for IC50: log dose inhibition curve; for BACE1 inhibitory activity (in words): at concentrations up to 200 µM. As to the method:
Assays were performed according to the supplied manual (Pan Vera Co.) with selected modifications, as described previously. […] Fluorescence was measured with a microplate spectrophotometer (Molecular Devices). The percent of inhibition (%) was obtained by the following equation: % Inhibition = [1 − (S60 − S0)/(C60 − C0)] × 100, where C60 was the fluorescence of the control (enzyme, buffer, and substrate) after incubation for 60 min, C0 was the initial fluorescence of the control, S60 was the fluorescence of the tested samples (enzyme, sample solution, and substrate) after incubation for 60 min, and S0 was the initial fluorescence of the tested samples. To account for the quenching effect of samples, the sample solution was added to a separate reaction mixture C, and any reduction in fluorescence by the sample was investigated.

Test [4] addresses T3, human recombinant BACE1. The conditions noted are these: cited from earlier work; for BACE1 inhibitory activity (in words): compounds isolated from n-BuOH fraction in earlier study.
In test [5] the target is T2, Electric eel acetylcholinesterase. Description: Enzyme kinetic analysis with AChE (Dixon and Lineweaver-Burk plots). The test is classed as biochemical.
Description: Inhibition constants (Ki) were determined by the interpretation of Dixon plots, where the x-axis intercept was taken as Ki.
On the set-up of test [6]: method as in PMID 10319159. The conditions noted are these: cited from earlier work.
Test [7] concerns the target T3, human recombinant BACE1. Description: Enzyme kinetic analysis with BACE1 (Dixon and Lineweaver-Burk plots). The test is classed as biochemical. As to the method:
Assays were performed according to the supplied manual (Pan Vera Co.) with selected modifications, as described previously. Briefly, mixtures of 10 µL of assay buffer (50 mM sodium acetate, pH 4.5), 10 µL of BACE1 (1.0 U/mL), 10 µL of the substrate (750 nM Rh-[…]-Quencher in 50 mM, ammonium bicarbonate), and 10 µL of compounds (final conc., 100 µM) dissolved in 10% DMSO were incubated for 60 min at 25 °C in the dark. The proteolysis of two fluorophores (Rh-[…]-Quencher) by BACE1 was monitored by the formation of fluorescent donor Rh-EVNL (530–545 nm, excitation; 570–590 nm, emission), the abundance of which was determined by measuring increase in fluorescence excited at 545 nm and recorded at 585 nm. Fluorescence was measured with a microplate spectrophotometer (Molecular Devices). The percent of inhibition (%) was obtained by the following equation: % Inhibition = [1 − (S60 − S0)/(C60 − C0)] × 100, where C60 was the fluorescence of the control (enzyme, buffer, and substrate) after incubation for 60 min, C0 was the initial fluorescence of the control, S60 was the fluorescence of the tested samples (enzyme, sample solution, and substrate) after incubation for 60 min, and S0 was the initial fluorescence of the tested samples. […]

The mark [8] stands for this setting: mean ± S.E.M of triplicate experiments, log dose inhibition curve, read-out: BChE IC50.
The mark [9] stands for this setting: mean ± S.E.M of triplicate experiments, log dose inhibition curve, read-out: AChE IC50.
The mark [10] stands for this setting: mean ± S.E.M of triplicate experiments, read-out: BACE1 IC50.

Values joined by “and” are separate entries in the source; they are usually repeats but may differ in a detail not shown here. Identical values can stand only once. “Also recorded” adds a separate entry of the source. Like-named read-outs stand apart in the source and are kept apart here.

T2 sequence (O42275 24-633): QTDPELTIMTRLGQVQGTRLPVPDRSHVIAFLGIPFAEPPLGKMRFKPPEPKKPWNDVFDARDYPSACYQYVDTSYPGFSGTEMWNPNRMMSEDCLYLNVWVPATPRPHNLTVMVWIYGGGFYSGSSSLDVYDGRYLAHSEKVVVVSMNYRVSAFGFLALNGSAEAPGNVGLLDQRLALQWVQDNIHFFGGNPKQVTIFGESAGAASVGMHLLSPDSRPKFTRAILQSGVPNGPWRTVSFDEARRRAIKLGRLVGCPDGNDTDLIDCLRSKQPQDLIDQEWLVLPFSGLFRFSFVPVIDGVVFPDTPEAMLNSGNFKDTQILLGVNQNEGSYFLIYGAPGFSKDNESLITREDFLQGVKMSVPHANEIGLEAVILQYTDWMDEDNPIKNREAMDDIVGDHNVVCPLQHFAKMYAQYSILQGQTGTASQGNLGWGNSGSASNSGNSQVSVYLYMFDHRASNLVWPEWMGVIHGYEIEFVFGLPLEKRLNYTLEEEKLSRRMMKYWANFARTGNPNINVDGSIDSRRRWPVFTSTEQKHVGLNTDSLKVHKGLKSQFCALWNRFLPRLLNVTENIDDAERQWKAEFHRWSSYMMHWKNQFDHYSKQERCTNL
T1 sequence (P81908 whole entry): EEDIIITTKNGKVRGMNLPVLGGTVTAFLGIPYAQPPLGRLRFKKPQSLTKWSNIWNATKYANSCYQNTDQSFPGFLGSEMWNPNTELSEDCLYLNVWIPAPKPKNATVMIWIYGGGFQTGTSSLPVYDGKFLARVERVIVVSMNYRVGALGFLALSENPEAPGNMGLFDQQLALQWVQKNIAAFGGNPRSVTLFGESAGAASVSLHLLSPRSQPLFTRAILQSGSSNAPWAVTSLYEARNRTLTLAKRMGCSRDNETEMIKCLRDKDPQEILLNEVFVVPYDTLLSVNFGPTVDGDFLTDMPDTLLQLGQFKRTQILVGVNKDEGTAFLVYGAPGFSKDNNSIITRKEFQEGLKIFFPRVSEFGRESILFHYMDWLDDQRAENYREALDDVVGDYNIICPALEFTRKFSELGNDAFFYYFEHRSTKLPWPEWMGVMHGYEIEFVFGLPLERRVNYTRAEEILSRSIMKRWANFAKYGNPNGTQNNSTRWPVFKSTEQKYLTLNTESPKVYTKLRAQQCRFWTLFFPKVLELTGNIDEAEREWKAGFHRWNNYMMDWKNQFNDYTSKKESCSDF

As for `COc1cc(O)c2c(O)c3c(=O)cc(C)oc3cc2c1` [Compound 1, rubrofusarin], the IC50 in test [1] is more than 200 µM; in test [2] it was 124 ± 1.39 µM; at human recombinant BACE1 [3] (BACE1 IC50, mean ± S.E.M of triplicate experiments) it was 90 ± 2.38 µM.

As for `COc1cc(OC)c2c(=O)c(OC)c(-c3ccc(OC)c(OC)c3)oc2c1` [PMF, 3,5,7,3′,4′-pentamethoxyflavone, reference compound], the IC50 at human recombinant BACE1 [4] (read-out: BACE1 IC50, literature value for PMF) was 59.8 µM. The BACE1 inhibitor type entry at human recombinant BACE1 [4] (reported for PMF) is listed as “noncompetitive inhibitor”.

Take `COc1cc(O[C@@H]2O[C@H](CO[C@@H]3O[C@H](CO)[C@@H](O)[C@H](O)[C@H]3O)[C@@H](O)[C@H](O)[C@H]2O)c2c(O)c3c(=O)cc(C)oc3cc2c1` [Compound 3, rubrofusarin 6-O-β-D-gentiobioside]: the IC50 in test [1] (setting [8]) worked out at 141.2 ± 1.23 µM; in test [2] (setting [9]), 15.9 ± 0.32 µM; at human recombinant BACE1 [3] (setting [10]) it was 85.7 ± 3.98 µM. Further, in test [2], the “AChE inhibition relative to 5, 6 and 4” value was “five times”. Further, the “AChE inhibition relative to 1” value in test [2] (fold more effective than 1 (no sugar moiety)) was “eight times”. Further, the “AChE inhibition relative to 2” value in test [2] (fold more effective than 2 (one sugar moiety)) is on record as “nine times”. The inhibition constant (Ki) in test [5] (Dixon plot, read-out: Ki Value (AChE inhibition constant)) is 12.8 µM. Moreover, the “Inhibition Type (AChE)” value in test [5] (Lineweaver-Burk plot) is reported as “mixed type inhibition; also recorded: Mixed type ^c”. In test [6], the “Radical scavenging activity relative to 4” value was “twice”.

Take `COc1cc(O[C@@H]2O[C@H](CO[C@@H]3O[C@H](CO)[C@@H](O)[C@H](O[C@@H]4O[C@H](CO)[C@@H](O)[C@H](O)[C@H]4O)[C@H]3O)[C@@H](O)[C@H](O)[C@H]2O)c2c(O)c3c(=O)cc(C)oc3cc2c1` [Compound 6, rubrofusarin 6-O-β-D-triglucoside]: the IC50 was more than 200 µM in test [1] (setting [8]), 82.3 ± 1.63 µM in test [2] (setting [9]) and more than 200 µM at human recombinant BACE1 [3] (setting [10]). The “BACE1 inhibitory activity (in words)” value at human recombinant BACE1 [3] is given as “no significant inhibitory activity”.

For the compound `COc1ccc2cc3[n+](cc2c1OC)CCc1cc2c(cc1-3)OCO2` [Berberine, berberine, reference compound], inhibition in test [2] was half-maximal at 0.68 ± 0.01 µM (IC50).

In the case of `COc1cc(OC2OC(CO)C(O)C(O)C2O)c2c(O)c3c(=O)cc(C)oc3cc2c1` [Compound 2, rubrofusarin 6-O-β-D-glucopyranoside], the IC50 in test [1] (setting [8]) is more than 200 µM; in test [2] (setting [9]) it was 148 ± 2.09 µM; on human recombinant BACE1 [3] (setting [10]), 148 µM and 191 µM.

Turning to `Cc1cc(=O)c2c(O)c3c(OC4OC(CO)C(O)C(O)C4O)cc(O)cc3cc2o1` [Compound 4, nor-rubrofusarin 6-O-β-D-glucoside], at human recombinant BACE1 [7] (Dixon plot, read-out: Ki Value (BACE1 inhibition constant)), the Ki stood at 10 µM. Besides, on human recombinant BACE1 [7] (Lineweaver-Burk plot), the “Inhibition Type (BACE1)” value is “mixed type of inhibition; also recorded: Mixed type ^e”. The IC50 is more than 200 µM in test [1] (setting [8]); 86 ± 2.01 µM in test [2] (setting [9]); 86 µM and 14.4 µM on human recombinant BACE1 [3] (setting [10]). Also, the “BACE1 inhibitory activity (in words)” value at human recombinant BACE1 [4] was “most potent BACE1 inhibitory activity”.

For the compound `COc1cc(O[C@@H]2O[C@H](CO[C@@H]3O[C@H](CO)[C@@H](O)[C@H](O)[C@H]3O)[C@@H](O)[C@H](O)[C@H]2O)c2c(c1)cc(O)c1c(=O)cc(C)oc12` [Compound 5, isorubrofusarin 10-O-β-D-gentiobioside], the figures for the IC50 (in test [1] (setting [8]); in test [2] (setting [9]); at human recombinant BACE1 [3] (setting [10])) were more than 200 µM, 83.5 ± 1.56 µM and more than 200 µM, respectively. Moreover, the “BACE1 inhibitory activity (in words)” value at human recombinant BACE1 [3] is “no significant inhibitory activity”.

Take toralactone gentiobioside: at human recombinant BACE1 [4], the “BACE1 inhibitory activity (in words)” value is “moderate activity”.

The values are drawn from article PMC6017707, “Structure Related Inhibition of Enzyme Systems in Cholinesterases and BACE1 In Vitro by Naturally Occurring Naphthopyrone and Its Glycosides Isolated from Cassia obtusifolia” (Molecules : A Journal of Synthetic Chemistry and Natural …, 2017).
